From paper PMC4932538, “Alkanediamide-Linked Bisbenzamidines Are Promising Antiparasitic Agents” (Pharmaceuticals, 2016)
Where two headings read alike, the source gives them in different places.

Columns and labels:
[1] = tested on: intracellular amastigote forms of T. cruzi Tulahuen strain C2C4 in rat skeletal myoblasts (L6 cells); assay: In vitro anti-T. cruzi activity; format: cell-based, Trypanosoma cruzi; conditions: Trypanosoma cruzi, TULAHUEN, L6; average of at least two determinations
Protocol: (§5) The anti-T. cruzi activity was determined using intracellular amastigote forms of T. cruzi Tulahuen strain C2C4 in rat skeletal myoblasts (L6 cells) as described previously [24]. The anti-L. donovani activity was determined using the amastigotes of L. donovani strain MHOM-ET-67/L82 as described previously [24]. […] The cytotoxicity assays against rat skeletal myoblast L6-cells were performed as described previously [24].

[2] = tested on: T. b. brucei Lab 110 EATRO (pentamidine-sensitive); assay: In vitro antitrypanosomal activity, T.b. brucei Lab 110 EATRO; format: cell-based, Trypanosoma brucei brucei; conditions: Trypanosoma brucei; Table S1; from IC50 of Table 1; read-out: pIC50 T.b. brucei (converted)
Protocol: (§6) The in vitro assays with the two isolates of T. brucei were conducted according to previously described procedures [14].

[3] = tested on: T. b. rhodesiense KETRi 243 (melarsoprol, pentamidine- and diminazene diaceturate-resistant); assay: In vitro antitrypanosomal activity, T.b. rhodesiense KETRI 243; format: cell-based, Trypanosoma brucei rhodesiense; conditions: Trypanosoma brucei, RHODESIENSE; Table S1; from IC50 of Table 1; read-out: pIC50 T.b. rhod (converted)
Protocol: as §5

[4] = tested on: rat skeletal myoblast L6-cells; assay: Cytotoxicity against L6 cells; format: cell-based; conditions: Rattus norvegicus, L6; cytotoxicity; read-out: IC50 L6 Cells
Protocol: as §5

[5] = tested on: T. b. brucei Lab 110 EATRO (pentamidine-sensitive); design: method as in PMID 19736009; conditions: strain Lab 110; average of at least two determinations; cited from earlier work
[6] = design: method as in PMID 24036514; conditions: incubation in vitro with mouse liver microsomes; cited from earlier work
[7] = tested on: calf thymus DNA; assay: DNA thermal melting with calf thymus DNA; format: binding; conditions: 1:5 compound to DNA base pair ratio; mean of at least two determinations
Protocol: (§1) In addition to the determination of the potency of the synthesized compounds against different strains of cell lines (Table 1), thermal melting experiments of these compounds were also conducted with poly(dA-dT) and calf thymus DNA (Table S1, supplementary file). […] The weaker binding to DNA (lower ΔTm values) compared to pentamidine might be attributed to the lower lipophilicity and higher PSA properties of these compounds since they would be expected to bind less favorably in the less polar environment of the minor grove of DNA as was reported for the aza-analogues of furamidine. […] Therefore, ability of these compounds to act at other potential targets cannot be ruled out.
(§2) The DNA binding affinity of the tested compounds was determined by measuring the change in mid-point of the thermal denaturation curves for a 1:5 compound to DNA base pair ratio as described previously. Each Tm value reported in Table S1 (supplementary file) represents the mean of at least two experimental determinations.

[8] = tested on: poly(dA-dT); assay: DNA thermal melting with poly(dA-dT); format: binding; conditions: 1:5 compound to DNA base pair ratio; mean of at least two determinations
Protocol: as §1, §2

[9] = tested on: P. falciparum K1 (chloroquine-resistant); assay: In vitro anti-plasmodial activity, K1; format: cell-based, Plasmodium falciparum; conditions: Plasmodium falciparum, K1
Protocol: as §5

[10] = tested on: amastigotes of L. donovani strain MHOM-ET-67/L82; assay: In vitro anti-L. donovani activity; format: cell-based, Leishmania donovani; conditions: Leishmania donovani; average of at least two determinations
Protocol: as §5

[11] = human, in vivo; cited from earlier work
[12] = tested on: T.b. brucei Lab 110 EATRO; assay: In vivo trypanocidal activity in mice, Lab 110 EATRO; conditions: for curing of infected mice: i.p., 3 days
Protocol: (§3) The compounds were administered via the intraperitoneal route at doses ranging from 1.0 mg/kg/day to 25.0 mg/kg/day for 3 days unless otherwise noted. Pentamidine was used as the reference compound. All three of the tested compounds were effective in curing mice infected with the Lab 110 EATRO or KETRI 2002 strains at several doses.
(§4) The in vivo studies were conducted according to the procedures described previously.

[13] = tested on: Pneumocystis; design: method as in PMID 16801410; conditions: 20 mg/kg and 40 mg/kg, cited from earlier work
[14] = tested on: P. falciparum NF54 (chloroquine-sensitive); assay: In vitro anti-plasmodial activity, NF54; format: cell-based, Plasmodium falciparum; conditions: Plasmodium falciparum, NF54; chloroquine-sensitive strain; read-out: IC50 P. falcip NF54
[15] = tested on: T.b. rhodesiense KETRI 2538; assay: In vivo trypanocidal activity in mice, KETRI 2538; conditions: for Mean Survival: KETRI 2538; for curing of infected mice: drug-resistant KETRI 2538, i.p., 3 days
Protocol: as §3, §4

[16] = tested on: both strains of T. brucei and P. falciparum; assay: In vitro potency against both strains of T. brucei and P. falciparum; format: cell-based, Trypanosoma brucei; Plasmodium falciparum; conditions: range over T.b. brucei, T.b. rhodesiense, P. falciparum NF54 and K1
Protocol: as §6

[17] = tested on: hemozoin formation; design: method as in PMID 15115412; conditions: micromolar concentrations, ex vivo; cited from earlier work
[18] = tested on: T.b. rhodesiense KETRI 1992; assay: In vivo trypanocidal activity in mice, KETRI 1992; conditions: KETRI 1992
[19] = tested on: T. b. rhodesiense KETRi 243 (melarsoprol, pentamidine- and diminazene diaceturate-resistant); design: method as in PMID 19736009; conditions: strain KETRI 243; average of at least two determinations; read-out: IC50 T.b. rhod; cited from earlier work
[20] = tested on: T.b. rhodesiense KETRI 2002; assay: In vivo trypanocidal activity in mice, KETRI 2002; conditions: for curing of infected mice: KETRI 2002, i.p., 3 days; for Mean Survival: KETRI 2002, 10, 15, 25 mg/kg/day i.p. for 3 days (all doses)
Protocol: as §3, §4

[21] = Table S1, from IC50 of Table 1, read-out: pIC50 P. falcip K1 (converted)
[22] = chloroquine-resistant strain, read-out: IC50 P. falcip K1

Row | SMILES | IC50 [1] | IC50 [2] | IC50 [3] | IC50 [4] | IC50 [5] | Thermal Melting ΔTm CT-DNA [7] | Thermal Melting ΔTm Poly(dA-dT) [8] | IC50 [9, 21] | IC50 [9, 22] | IC50 [10] | Mean Survival ([12]; 1.0 mg/kg/day i.p. for 3 days) | No. of Mice Cured/Total (%) ([12]; 1.0 mg/kg/day i.p. for 3 days) | Mean Survival ([12]; 2.5 mg/kg/day i.p. for 3 days) | No. of Mice Cured/Total (%) ([12]; 2.5 mg/kg/day i.p. for 3 days) | Mean Survival ([12]; 5 mg/kg/day i.p. for 3 days) | Mean Survival ([12]; 10 mg/kg/day i.p. for 3 days) | Mean Survival ([12]; 15 mg/kg/day i.p. for 3 days) | curing of infected mice [12] | IC50 [14] | curing of infected mice [15] | further results
1 | NC(=NO)c1ccc(NC(=O)CCCC(=O)Nc2ccc(C(N)=NO)cc2)cc1 [Compound 4] | > 100 µM | 7290 nM | 10000 nM | > 100 µM | 7300 nM | 0.7 C | 0.0 C | 3160 nM | 3160 nM | > 100 µM |  |  |  |  |  |  |  |  |  |  | metabolism of the amidoxime moiety to the amidine function [6]: readily metabolized
2 | CONC(=N)c1ccc(-c2ccc(-c3ccc(C(=N)NOC)cc3)o2)cc1.O=C(O)/C=C\C(=O)O [parafuramidine maleate] |  |  |  |  |  |  |  |  |  |  |  |  |  |  |  |  |  |  |  |  | toxicity that halted development [11]: nephrotoxicity
3 | N=C(N)c1ccc(NC(=O)CCCC(=O)Nc2ccc(C(=N)N)cc2)cc1 [Compound 5] | > 100 µM | 8.99 nM | 95.9 nM | 69 µM | 9 nM | 5.6 C | 11.4 C | 2 nM | 2 nM | > 100 µM | 6.0 days | 0/3 | 11.3 days | 0/3 | 10 days | >30 days | >30 days | highly effective | 2 nM | highly efficacious | survival versus pentamidine treated mice ([13]; same doses of pentamidine): improved survival curves; reductions in burden [13]: > 1000 fold; Mean Survival ([15]; 10, 15, 25 mg/kg/day i.p. for 3 days (all doses)): >30 days; IC50 [16]: 1 to 96 nM; interference with hemozoin formation [17]: interfere with hemozoin formation; Mean Survival ([18]; 10 mg/kg/day i.p. for 3 days): 17.5 days; No. of Mice Cured/Total (%) ([18]; 10 mg/kg/day i.p. for 3 days): 0/3; Mean Survival ([18]; 15 mg/kg/day i.p. for 3 days): 14.5 days; No. of Mice Cured/Total (%) ([18]; 15 mg/kg/day i.p. for 3 days): 0/3; Mean Survival ([18]; 25 mg/kg/day i.p. for 3 days): 25 days; No. of Mice Cured/Total (%) ([18]; 25 mg/kg/day i.p. for 3 days): 0/3; IC50 [19]: 96 nM; curing of infected mice [20]: highly effective; Mean Survival [20]: >30 days
4 | N=C(N)c1ccc(NC(=O)CCCCC(=O)Nc2ccc(C(=N)N)cc2)cc1 [Compound 6] | > 100 µM | 3 nM | 2 nM | > 100 µM | 3 nM | 8.7 C | 14.4 C | 18 nM | 18 nM | > 100 µM | 6.7 days | 0/3 | 10.0 days | 0/3 | >30 days | >30 days | >30 days | highly effective | 4 nM | highly efficacious | Mean Survival ([15]; 5, 10, 15 mg/kg/day i.p. for 3 days (all doses)): >30 days; IC50 [16]: 1 to 96 nM; IC50 [19]: 2 nM; curing of infected mice [20]: highly effective; Mean Survival [20]: >30 days
